This note sets out measurements from patent publication US20260297042A1, “BIARYLAMIDE DERIVATIVES AND THEIR USE AS PKMYT1 INHIBITORS” (CANCER RESEARCH TECHNOLOGY LIMITED, priority 2023, published 2026).

For orientation: IC50 means the concentration that gives 50% inhibition. High values mean weaker potency, low ones greater potency.

In this test the target is T1, Human PKMYT1 (Homo sapiens, UniProt Q99640).
T1 construct: Human PKMYT1 75-362 was cloned as a TEV cleavable 6xHis fusion; 6xHis (TEV cleavable) (cleaved yes); made in house; host or cells: bacterial cells
T1 sequence (Q99640 75-362): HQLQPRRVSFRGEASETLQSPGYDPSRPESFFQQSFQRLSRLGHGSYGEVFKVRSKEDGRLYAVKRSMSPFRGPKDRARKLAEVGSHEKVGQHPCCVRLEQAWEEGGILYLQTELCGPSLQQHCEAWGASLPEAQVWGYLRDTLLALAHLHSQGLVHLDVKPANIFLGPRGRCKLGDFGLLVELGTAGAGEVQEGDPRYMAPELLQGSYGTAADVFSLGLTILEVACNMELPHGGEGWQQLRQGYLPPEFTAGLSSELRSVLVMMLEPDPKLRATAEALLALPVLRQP
Description: PKMYT1 biochemical ADP-Glo enzymatic assay. The note with it: ADP-Glo; 15 nM PKMYT1 kinase domain, 500 µM ATP, 60 minutes at 26° C.; banded. In short, it runs like this:
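Measures inhibition of PKMYT1 autonomous ATP hydrolysis: bacterially expressed human enzyme (75-362, tag cleaved) at 15 nM with 500 µM ATP for 60 min at 26 °C, then ADP-Glo Max detection. IC50s accepted only when replicates agreed within 3-fold and curve r2 exceeded 0.9.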
Background: In ADP-Glo the light output rises with the ADP produced.

`CCN(CC)C(=O)Cn1cc(C)c(Nc2ncc(C(=O)Nc3c(C)ccc(O)c3C)s2)n1` [BAA-207, 2-[[1-[2-(diethylamino)-2-oxo-ethyl]-4-methyl-pyrazol-3-yl]amino]-N-(3-hydroxy-2,6-dimethyl-phenyl)thiazole-5-carboxamide] registered an IC50 below 0.05 µM.
